Columns and labels:
[1] = biological target: human 5-HT1A receptor (Homo sapiens (Human), UniProt P08908); test: Inhibition of [3H]-8-OH-DPAT binding in membranes from CHO-h5-HT1A cells; conditions: 5 nM [3H]-8-OH-DPAT, read-out: Binding affinity value (Ki)
Description: In Vitro Agonist Binding Assay.
Preparation of Membrane Fractions from CHO-h5-HT1A Cells. Membranes from CHO cells stably expressing the human 5-HT1A receptor at a density of 8 pmol/mg membrane protein with 5-HT2c receptor background were prepared. Cells were grown in DMEM/F-12 medium supplemented with 5% fatal bovine serum, 50 ig/mL geneticin, and 50 ig/mL hygromycin B in a humidified atmosphere of 5% CO2 until they reached confluence. Cells were harvested by centrifugation (800 g for 5 min) and homogenized using a polytron homogenizer (Polytron, CH-6010 Kreiens-Lu, Brinkman Instrument, Westbury, N.Y.) in buffer containing 20 mM HEPES, pH7.4, 3 mM MgCl2, and a cocktail of protease inhibitors (Sigma-Aldrich, St. Louis, Mo.) at 1:2000 dilution. The homogenate was centrifuged (Beckman Optima LE80K Ultracentrifuge) at 100 000 g for 15 min at 4° C. The pellet was suspended in the same buffer and recentrifuged. The final pellet was suspended in assay buffer containing 20 mM HEPES, pH 7.4, 3 mM MgCl2, 100 mM NaCl, and a mixture of protease inhibitors and stored at −70° C. Protein concentration was determined by detergent compatible colorimetric assay using DC Protein Assay Reagents as recommended by the manufacturer (Bio-Rad, Hercules, Calif.).
Inhibition of [^3H]-8-OH-DPAT Binding by A-D or 5-HT in Membranes. For inhibition experiments, the incubation medium consisted of 20 mM HEPES, pH 7.4, 4 mM CaCl2, 5 nM [^3H]-8-OH-DPAT, and 30 μg of membrane protein in the presence of different concentrations of […] or 5-HT. The assay mixture was incubated for 10 min at 30° C. The reaction was terminated by rapid filtration through Whatman GF/B filters followed by three washes with ice cold 20 mM HEPES buffer, pH 7.4, using a cell harvester (Brandel, M-24R Gaitherburg, Md.). Bound radioactivity was determined by liquid scintillation spectrometry (Beckman).

[2] = biological target: 5-HT1AR (Rattus norvegicus (Rat), UniProt P19327); test: Endogenous changes of 5-HT measured with Compound E uptake and binding in pretreated rats; assay type: in vivo; conditions: for SBR (specific binding ratio) of Compound E, change versus saline / SUV of Compound E, change versus saline: hippocampus, 90 min after Compound E i.v., pretreated rats
5-HT1AR, sequence (P19327 whole entry): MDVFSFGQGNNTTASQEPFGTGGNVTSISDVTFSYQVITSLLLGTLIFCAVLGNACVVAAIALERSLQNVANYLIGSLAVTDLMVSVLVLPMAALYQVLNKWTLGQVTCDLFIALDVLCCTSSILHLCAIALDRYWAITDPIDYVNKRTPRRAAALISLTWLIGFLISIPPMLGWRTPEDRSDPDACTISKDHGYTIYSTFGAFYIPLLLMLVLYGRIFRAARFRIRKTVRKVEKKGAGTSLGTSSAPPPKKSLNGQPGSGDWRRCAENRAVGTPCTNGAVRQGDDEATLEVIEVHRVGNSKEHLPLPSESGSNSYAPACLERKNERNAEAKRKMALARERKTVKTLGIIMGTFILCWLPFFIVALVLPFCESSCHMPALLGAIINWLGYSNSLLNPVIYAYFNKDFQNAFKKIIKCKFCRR
Description: Endogenous changes of 5-HT measurement with Compound E: Rats were pretreated according to the group below, injected with 0.1 MBq (0.18±0.02 nmol/kg, i.v.) of Compound E, then killed by decapitation after 90 minutes. Blood was collected from the trunk, the brain was extracted and the striatum, hippocampus, frontal cortex and cerebellum were dissected. Brain regions were dissolved, plasma was separated from the blood and radioactivity concentrations were determined.
The uptake and binding of Compound E after injection differed by treatment condition. […] Changes in the specific binding ratio (SBR=(activity in ROI−activity in Cerebellum)/activity in Cerebellum) were significant in Fenfluramine 1 and 2.

[3] = biological target: 5-HT1A (Rattus norvegicus (Rat), UniProt P19327); test: Ex vivo saturation binding of Compound E in rat brain regions; conditions: hippocampus and frontal cortex, rats 90 min after i.v. injection, one binding-site model
5-HT1A, sequence (P19327 whole entry): as above
Description: Ex vivo studies of compound E: Awake rats were injected in the tail vein with Compound E shown below:
Total mass injected was between 0.02 nmol/kg and 500 nmol/kg. All rats were decapitated after 90 minutes, based on time activity experiments with Compound E. The brains were extracted and brain regions were dissected, and then dissolved in Solvable (Packard). Blood was collected, and the plasma was separated. Radioactivity concentrations were determined by scintillation counting.
It was possible to saturate the 5-HT1A binding of Compound E in the frontal cortex and hippocampus. Data were best fitted with a one binding-site model. […] The cerebellum and plasma were unsaturable and no binding model could be fitted to the data.

human 5-HT1A receptor, sequence (P08908 whole entry): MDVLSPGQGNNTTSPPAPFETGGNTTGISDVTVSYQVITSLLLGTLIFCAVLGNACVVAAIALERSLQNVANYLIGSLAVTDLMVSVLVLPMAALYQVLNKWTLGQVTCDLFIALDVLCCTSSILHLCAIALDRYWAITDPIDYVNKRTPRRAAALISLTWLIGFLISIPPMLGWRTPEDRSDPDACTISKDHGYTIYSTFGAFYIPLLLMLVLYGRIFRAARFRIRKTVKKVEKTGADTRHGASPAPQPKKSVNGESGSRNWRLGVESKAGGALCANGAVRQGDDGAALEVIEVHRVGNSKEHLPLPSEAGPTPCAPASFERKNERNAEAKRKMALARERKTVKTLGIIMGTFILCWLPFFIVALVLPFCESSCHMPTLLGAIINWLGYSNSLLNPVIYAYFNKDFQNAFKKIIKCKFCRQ

Compound	Ki [1]	SBR (specific binding ratio) of Compound E, change versus saline [2]	SUV of Compound E, change versus saline [2]	Change in uptake of Compound E by treatment condition ([2]; in words)	other results
Cn1c(=O)cnn(CCCCN2CCN(c3cccc(Br)n3)CC2)c1=O	4 nM	–	–	–	–
Cn1c(=O)cnn(CCCCN2CCN(c3cccc(I)n3)CC2)c1=O	5.5 nM	–	–	–	–
Cn1c(=O)cnn(CCCCN2CCN(c3ccccc3Br)CC2)c1=O	6 nM	–	–	–	–
CN(C)CCCC1(c2ccc(F)cc2)OCc2cc(C#N)ccc21 (centres unmarked) [Citalopram]	–	−12.2%	+4.8%	–	–
[3H]COc1ccccc1N1CCN(CCCCn2ncc(=O)n(C)c2=O)CC1 [Compound E]	–	–	–	–	Kd [3]: 17 to 18 nM
CCNC(C)Cc1cccc(C(F)(F)F)c1 (centres unmarked) [Fenfluramine]	–	+32.8%	−0.1%	Significant changes in uptake	Change in specific binding ratio of Compound E by treatment condition ([2]; in words): significant
NC(Cc1ccc(Cl)cc1)C(=O)O (centres unmarked) [Single Housed + pCPA, pCPA]	–	−15.1%	−14.1%	Significant changes in uptake	–
[3H]COc1ccccc1N1CCN(CCCCn2ncc(=O)n(C)c2=O)CC1 [drawing 34]	0.15 nM	–	–	–	–
Isoflurane [Isoflurane, 1-3% (Inhaled) + Saline]	–	−4.6%	+52.1%	Significant changes in uptake	–

— US9290463B2, “Radiolabeled compounds and uses thereof” (THE TRUSTEES OF COLUMBIA UNIVERSITY IN THE CITY OF NEW YORK, priority 2010, dated 2016)
